US20260335298A1, “PHARMACEUTICAL COMBINATION CONTAINING DONEPEZIL AND RIVASTIGMINE FOR PREVENTING, ALLEVIATING OR TREATING DEMENTIA OR COGNITIVE IMPAIRMENT, AND PREPARATION METHOD THEREFOR” (G2GBIO, INC., priority 2022, published 2026)

Key:
[1] = tested on: AChE mRNA (SH-SY5Y cells); assay: AChE mRNA expression in SH-SY5Y cell line (qRT-PCR, FIGS. 2 to 4); format: cell-based, human
Method: Specifically, the SH-SY5Y cell line was cultured in a 6-well plate (6×10^5/well) using high-glucose Dulbecco's modified Eagle medium (DMEM) added with 10% fetal bovine serum and penicillin-streptomycin. SH-SY5Y cells were treated with the donepezil at final concentrations of 10, 20, 30, 40 (15.2 μg/ml) μM, or the rivastigmine at 0.01, 0.1, 0.5, 1, 5 (1.25 μg/ml) μM and cultured for 24 hours, and then, a total RNA was extracted from each cell using TRIzol, and cDNA was synthesized using a SuperScriptIII cDNA synthesis kit. Quantitative real-time PCR (qRT-PCR) was performed using the synthesized cDNA and primers and SYBR Green in Table 3 below using QuantStudio 3. In order to confirm amplification and accumulation of a target gene in real time, the qRT-PCR was performed under a condition that a cycle of 95° C. for 15 seconds and 60° C. for 1 minute was reacted 40 times after an initial denaturation reaction was performed at 50° C. for 2 minutes and 95° C. for 10 minutes.
A gene expression level amplified by the Comparative Ct Method which is one of methods for quantifying a specific gene expression level was calculated, and analysis results are shown in FIGS. 2 to 4.
[Relational Expression of AChE mRNA Expression Level Analysis for Each Sample]
ΔCt value=Ct value of AChE in each sample−Ct value of reference gene (GAPDH) in the sample.
(Here, Ct refers to a cycle number in which amplification begins to increase clearly during a PCR process.)
Specifically, the SH-SY5Y cell line was cultured in a 6-well plate (6×10^5/well) using DMEM added with 10% fetal bovine serum and penicillin-streptomycin. Gene expression comparative analysis was performed by treating the SH-SY5Y cells with donepezil alone or with donepezil and rivastigmine in combination and performing qRT-PCR as in the previous experiment method.
Specifically, the gene expression comparative analysis was performed by treating the SH-SY5Y cells with donepezil 20 μM alone and with donepezil 20 μM and rivastigmine 0.1, 0.5, 1, and 5 μM as a final concentration in combination and performing qRT-PCR as in the previous experiment method.

AChE mRNA (APP-H4 cells) = assay: AChE mRNA expression in APP-H4 cell line (qRT-PCR, FIGS. 5 and 6); format: cell-based, human; details: 24 h
From the text: An APP-H4 cell line is known as a dementia model cell line in which an abnormal segment of Amyloid Precursor Protein (APP) is increased by β-secretase and Alzheimer's disease and hyperphosphorylation of a Tau protein are induced by introducing a Swedish mutation of APP into human neuroglioblastoma H4 cells. In order to re-verify the effect of combined administration of the donepezil and the rivastigmine on the AChE mRNA expression and the drug combination ratio confirmed through a previous study, APP-H4 cells were treated with the donepezil and the rivastigmine alone or in combination as active ingredients, and the AChE gene expression was analyzed.
Specifically, the APP-H4 cell line was cultured in DMEM including 10% fetal bovine serum and gentamycine. Gene expression comparative analysis was performed by treating cells with donepezil 50 (19 μg/ml) μM alone or with donepezil 50 μM and rivastigmine 1 or 5 (1.25 μg/ml) μM as a final concentration in combination and performing qRT-PCR as in the previous experiment method (primers are shown in Table 4 below).
APP-H4 cells were treated with the donepezil and the rivastigmine alone or in combination and cultured for 24 hours, and then the AChE mRNA expression level was measured by qRT-PCR method.

AChE = details: patients taking donepezil in a long-term; cited from earlier work

SMILES | AChE mRNA expression ([1]; 5 μM (1.9 μg/ml) donepezil alone, FIG. 3) | AChE mRNA expression ([1]; donepezil alone, beyond 20 μM (30, 40 μM), 24 h, FIG. 2) | AChE mRNA expression ([1]; donepezil alone, up to 20 μM, 24 h, FIG. 2) | AChE expression (AChE mRNA (APP-H4 cells); 50 μM donepezil, FIG. 6) | AChE activity and quantity (AChE) | AChE mRNA expression ([1]; rivastigmine alone, 0.01 to 5 μM, 24 h, FIG. 2) | AChE mRNA expression (AChE mRNA (APP-H4 cells); rivastigmine alone, 0.5, 1, or 10 μM, FIG. 5)
COc1cc2c(cc1OC)C(=O)C(CC1CCN(Cc3ccccc3)CC1)C2 (stereo not shown) [donepezil] | increased | no difference | dependently increased | increased | increases | – | –
CCN(C)C(=O)Oc1cccc([C@H](C)N(C)C)c1 [rivastigmine] | – | – | – | – | – | no statistically significant change was observed | no effect
